The values that follow come from paper PMC4917254 (PLoS ONE, 2016).

Several values for one entry are separate records, joined by “and”; a condition that tells them apart may be missing. Equal values may be shown once. Where a name gives a salt, the structure may show the parent alone. Read-outs that look alike come from different tables or passages of the source. Bounds are passed on as bounds.

Assay [1] concerns the target T1, β2γ2L GABAARs (Homo sapiens, UniProt P18507+P47870).
T1 construct: expressed in transfected cells; host or cells: Xenopus laevis oocytes injected with mRNA
Kind of assay: Two-electrode voltage clamp, recombinant β2γ2L GABAARs in Xenopus oocytes. It is filed as cell-based. Conditions: Hill slope of GABA curve. As for the experimental part: (§1) The expression and functional characterisation of recombinant GABAARs in Xenopus oocytes were performed as previously described. The subunit mRNA ratios for the expression of αβγ receptors were adjusted according to the β subunit isoform in that when β2-containing receptors were expressed, a 1:1:3 ratio was used, whereas when β1- or β3-containing receptors were expressed, a 10:1:10 ratio was used to minimise the expression of homomeric β1/3 homomeric receptors. To express α4β2δ receptors, a 5:1:5 ratio was used, and the pharmacological characteristics of this receptor were as described in Hartiadi et al. (2016). The injection ratio used for the expression of α1β2 and β2γ2L receptors were 1:1 and 1:3 respectively. Approximately 2 to 10 ng of mRNA mixture was injected into each oocyte. Injected oocytes were stored in ND96 storage solution supplemented with 50 μg/mL gentamycin and tetracycline at 18°C.
(§2) Two-electrode voltage clamp recordings were performed on oocytes 2–5 days post-injection at room temperature (20–25°C) using a GeneClamp 500B amplifier (ADInstruments, Sydney, NSW, Australia) or a Warner OC-725C Oocyte Clamp (Warner Instrument Corp, Hamden, CT, USA). […]
(§3) Alternatively, the modulatory effect was expressed as the fold of potentiation, as shown in Eq 3.

Assay [2] concerns the target T2, α1β2γ2L GABAARs (Homo sapiens, UniProt P14867+P18507+P47870).
T2 construct: expressed in transfected cells; host or cells: Xenopus laevis oocytes injected with mRNA (1:1:3)
Kind of assay: Two-electrode voltage clamp, recombinant α1β2γ2L GABAARs in Xenopus oocytes. Conditions: for nH ± SEM: Hill slope of GABA curve, α1β2γ2L. The assay is classed as cell-based. How it is done: as §1
(§4) Two-electrode voltage clamp recordings were performed on oocytes 2–5 days post-injection at room temperature (20–25°C) using a GeneClamp 500B amplifier (ADInstruments, Sydney, NSW, Australia) or a Warner OC-725C Oocyte Clamp (Warner Instrument Corp, Hamden, CT, USA). All experiments were conducted at a holding potential of –60 mV, and data were acquired with a PowerLab 2/25, and LabChart (version 5.0.2) software (ADInstruments, Sydney, NSW, Australia). The recording microelectrodes (0.2–1.1 MΩ) were generated from capillary glass (Harvard Apparatus, Holliston, MA, USA) using a single-stage glass microelectrode puller (Narishige, Tokyo, Japan), and were filled with 3 M KCl solution.
(§5) Perfusates containing these chemicals were made up fresh before each application. […] All experiments were performed using at least two different batches of oocytes.
(§6) Prism (version 5.04; GraphPad Software, La Jolla, CA, USA) was used for data analysis. All data are presented as mean ± standard error of the means (SEM).
as §3

Assay [3] concerns the target α2β2γ2L GABAARs (Homo sapiens, UniProt P18507+P47869+P47870). Conditions: Hill slope of GABA curve. How it is done: as §1, §2, §3
For assay [4], the target named is T3, α3β2γ2L GABAARs (Homo sapiens, UniProt P18507+P34903+P47870).
T3 construct: expressed in transfected cells; host or cells: Xenopus laevis oocytes injected with mRNA (1:1:3)
Kind of assay: Two-electrode voltage clamp, recombinant α3β2γ2L GABAARs in Xenopus oocytes. It is filed as cell-based. The note with it: Hill slope of GABA curve. How it is done:
as §1, §2, §3

Assay [5] addresses T4, α5β2γ2L GABAARs (Homo sapiens, UniProt P18507+P31644+P47870).
T4 construct: expressed in transfected cells; host or cells: Xenopus laevis oocytes injected with mRNA (1:1:3)
Kind of assay: Two-electrode voltage clamp, recombinant α5β2γ2L GABAARs in Xenopus oocytes. It is filed as cell-based. The note with it: Hill slope of GABA curve. How it is done: as §1, §2, §3
(In general: Two-electrode voltage clamp holds a large cell at a set potential and records current.)

The target in assay [6] is T5, α1β1γ2L GABAARs (Homo sapiens, UniProt P14867+P18505+P18507).
T5 construct: expressed in transfected cells; host or cells: Xenopus laevis oocytes injected with mRNA (10:1:10)
Kind of assay: Two-electrode voltage clamp, recombinant α1β1γ2L GABAARs in Xenopus oocytes. The note with it: Hill slope of GABA curve. The assay is classed as cell-based. How it is done:
as §1, §2, §3

Assay [7] has as its target T6, α1β3γ2L GABAARs (Homo sapiens, UniProt P14867+P18507+P28472).
T6 construct: expressed in transfected cells; host or cells: Xenopus laevis oocytes injected with mRNA (10:1:10)
Kind of assay: Two-electrode voltage clamp, recombinant α1β3γ2L GABAARs in Xenopus oocytes. The assay is classed as cell-based. How it is done:
as §1, §2, §3

Assay [8] addresses T7, α4β2δ GABAARs (Homo sapiens, UniProt O14764+P47870+P48169).
T7 construct: expressed in transfected cells; host or cells: Xenopus laevis oocytes injected with mRNA (5:1:5)
Kind of assay: Two-electrode voltage clamp, recombinant α4β2δ GABAARs in Xenopus oocytes. The assay is classed as cell-based. Conditions: for nH ± SEM: Hill slope of GABA curve, α4β2δ. As for the experimental part: as §1, §4, §5, §6, §3

For assay [9], the target named is T8, α1M236Wβ2γ2L GABAARs (Homo sapiens, UniProt P14867+P18507+P47870, M263W).
T8 construct: expressed in transfected cells; host or cells: Xenopus laevis oocytes injected with mRNA
Kind of assay: Two-electrode voltage clamp, mutant α1M236Wβ2γ2L GABAARs in Xenopus oocytes. It is filed as cell-based. The note with it: for agonist effect, mutant vs wild-type: p > 0.05, n = 5.
Excerpt: (§7) Human complementary DNAs (cDNAs) of GABAAR subunits used in this study and their corresponding subcloned vectors include: α1, β1, β2 and γ2L in pCDM8; α2 and α3 in pCDNA3.1; α4 and δ in pCDNA1/Amp; α5 in pCDNA3; β3 in pGEMHE. […] Linearised plasmid DNAs were used as templates for the synthesis of messenger RNAs (mRNAs) using the mMessage mMachine T7 transcript kit from Ambion (Austin, TX, USA). Mutations were introduced to various GABAAR subunits of interest using the QuikChange II Site-Directed Mutagenesis Kit. For the α1M236W point mutation, forward primer 5′-[…]-3′ and reverse primer 5′-[…]-3′ were used. For the β2M286W point mutation, forward primer 5′-[…]-3′ and reverse primer 5′- […]-3′ were used. For the β3N265M point mutation, forward primer 5′- […]-3′ and reverse primer 5′-[…]-3′ were used.
as §1, §4, §5, §6, §3

Assay [10] deals with T9, α1β2M286Wγ2L GABAARs (Homo sapiens, UniProt P14867+P18507+P47870, M310W).
T9 construct: expressed in transfected cells; host or cells: Xenopus laevis oocytes injected with mRNA
Kind of assay: Two-electrode voltage clamp, mutant α1β2M286Wγ2L GABAARs in Xenopus oocytes. The assay is classed as cell-based.
Excerpt: as §7, §1, §4, §5, §6, §3

The target of assay [11] is T10, α1β3N265Mγ2L GABAARs (Homo sapiens, UniProt P14867+P18507+P28472, N290M).
T10 construct: expressed in transfected cells; host or cells: Xenopus laevis oocytes injected with mRNA (10:1:10)
Kind of assay: Two-electrode voltage clamp, mutant α1β3N265Mγ2L GABAARs in Xenopus oocytes. It is filed as cell-based.
Excerpt: as §7, §1, §4, §5, §6, §3

Assay [12] deals with α1β2, β2γ2L, αxβ2γ2L (x = 1, 2, 3 or 5), α1βxγ2L (x = 1, 2 or 3) and α4β2δ GABAARs. Kind of assay: Kavain potentiation compared across GABAAR subtypes (two-electrode voltage clamp). It is filed as cell-based, human. The note with it: 300 μM kavain, GABA EC3-7 (EC30 at α4β2δ), Tukey's test. As for the experimental part: as §1, §2
Alternatively, the modulatory effect was expressed as the fold of potentiation, as shown in Eq 3. […]

As for `NCCCC(=O)O` [GABA, γ-Aminobutyric acid], the “nH ± SEM” value is listed as 0.63 ± 0.034 in [1]; 0.99 ± 0.062 in assay [2]; 0.75 ± 0.026 in [2] (+ 300 μM kavain); 1.4 ± 0.041 in assay [3]; 1.2 ± 0.054 in assay [4]; 1.0 ± 0.078 in assay [5]. In addition, the “nH ± SEM” value was 1.1 ± 0.059 in assay [6]; 1.2 ± 0.070 in assay [7] (Hill slope of GABA curve, α1β3γ2L); 0.70 ± 0.095 in assay [8]; 0.59 ± 0.11 in assay [8] (+ 300 μM kavain); 0.80 ± 0.053 in [9] (Hill slope of GABA curve, mutant printed as α1M286Wβ2γ2L in table); 1.1 ± 0.036 in assay [10] (Hill slope of GABA curve, α1β2M286Wγ2L). In [11] (Hill slope of GABA curve, α1β3N265Mγ2L), the “nH ± SEM” value is reported as 1.4 ± 0.083.
As to `CN1C(=O)CN=C(c2ccccc2)c2cc(Cl)ccc21` [diazepam], in assay [2], the “enhancement of GABA current, normalised to 10 μM GABA responses” value came to 260 ± 4.2% and the “flumazenil sensitivity of diazepam enhancement” value was “flumazenil-sensitive”.
Take `CCOC(=O)c1cncn1[C@H](C)c1ccccc1` [etomidate, Etomidate hydrochloride (HCl)]: the “enhancement of GABA EC3 responses, % of maximal GABA responses” value in assay [2] was 53 ± 2.6% and 45 ± 3.1%. Also, in [9] (3 μM etomidate, p < 0.0001, n = 5), the “modulatory effect on GABA EC3 (1 μM) responses, mutant vs wild-type” value is recorded as “significantly attenuated”. Also, the “agonist effect, mutant vs wild-type” value in assay [9] (30 μM etomidate) is “not significantly different from wild-type receptors”. The “etomidate sensitivity (modulatory and agonist effects)” value in [10] (data not shown) was “abolished”. Besides, the “modulation (3 μM) and activation (30 μM) of the point-mutated receptors” value in assay [11] (data not shown) is listed as “did not modulate (at 3 μM) nor activate (at 30 μM)”.
For the compound `CCOC(=O)c1ncn2c1CN(C)C(=O)c1cc(F)ccc1-2` [flumazenil], in [2] (10 μM GABA + 10 μM flumazenil), the “effect of flumazenil alone on GABA responses” value was “did not alter GABA responses”.
Consider `CC(C)c1cccc(C(C)C)c1O` [propofol], for which, in assay [2], the “elicited current, % of the maximal propofol responses” value is 91 ± 1.5%; the “enhancement of GABA EC3 responses, % of the maximal GABA responses” value is 45 ± 3.5% and 50 ± 4.8%. For the same compound, the “modulatory effect on GABA EC3 (1 μM) responses, mutant vs wild-type” value in [9] (10 μM propofol, p < 0.01, n = 5) is “significantly attenuated”. Besides, the “agonist effect, mutant vs wild-type” value in assay [9] (100 μM propofol) is listed as “not significantly different from wild-type receptors”. The “receptor modulation in the presence of GABA EC3 (1 μM), mutant vs wild-type” value in assay [10] (10 μM propofol, p < 0.001) is reported as “significantly diminished”. The “direct activation, mutant vs wild-type” value in [10] (100 μM propofol, p > 0.05) is reported as “unaffected”. Further, the “propofol activity at the point-mutated receptors” value in [11] is “Pronounced attenuation”.
In the case of DL-kavain, the “GABA-enhancing action of kavain in the presence of flumazenil” value in [2] (10 μM GABA + 300 μM kavain + 10 μM flumazenil) is listed as “unaffected in the presence of flumazenil”. Moreover, the “enhancement of GABA current, normalised to 10 μM GABA responses” value in assay [2] (10 μM GABA + 300 μM kavain, n = 5) is 260 ± 11%. For the same compound, the “intrinsic agonist activity, currents relative to the 10 mM GABA responses” value in [2] (300 μM kavain alone, n = 5) is recorded as under 1%. Moreover, the “enhancement of GABA-elicited responses” value in assay [2] (300 μM kavain, GABA EC3 (10 μM), n = 6) came out at 170 ± 23%. Further, in assay [2] (300 μM kavain, GABA concentration-response curve), the “enhancement depending on GABA concentration” value was “modest enhancement at GABA concentrations below EC45”. Also, the “current elicited by kavain alone, % of the GABA EC3 responses” value in assay [2] (300 μM kavain, wild-type, n = 4) was 15 ± 3.6%; in assay [9] (300 μM kavain, n = 6), “approximately 63 ± 5.2%”; in assay [10] (300 μM kavain, p < 0.0001 vs wild-type), 96 ± 5.8%. In addition, the “potentiation by co-application, % of GABA EC3 responses” value is on record as 250 ± 7.8% in assay [2] (GABA EC3 + 300 μM kavain, n = 4, kavain-elicited current not deducted) and 220 ± 11% in assay [9] (GABA EC3 + 300 μM kavain, n = 6, kavain-elicited current not deducted). The “kavain modulation of GABA EC3 responses” value in [7] (GABA EC3 + 300 μM kavain) was 260 ± 18%; in [11] (GABA EC3 + 300 μM kavain, p < 0.001 vs α1β3γ2L), 110 ± 14%. For the same compound, the “increase of the maximal response evoked by GABA” value in assay [8] (300 μM kavain, p < 0.0001) was “two fold”. Besides, the “modulatory effect on GABA EC3-elicited responses, % of GABA EC3” value in [10] (GABA EC3 + 300 μM kavain, p > 0.05 vs α1β2γ2L) is 270 ± 8.7%. Also, the “current elicited by kavain alone, % of GABA EC3 responses” value in [11] (300 μM kavain) is 3.3 ± 1.0%. Moreover, in [12], the “subtype selectivity of potentiation” value is on record as “no significant subtype selectivity”.
